Assay results: the NIST ThermoML archive (doi:10.1016/j.tca.2008.10.015)
Numbers after ± are expanded uncertainties.

Experiments:
[1] = 101.33 kPa, Liquid, conductivity meter
[2] = molar heat capacity at constant pressure; details: 101.33 kPa, Liquid, Small sample (50 mg) DSC

| SMILES | electrical conductivity ([1]; 303.2 K) [S/m] | electrical conductivity ([1]; 308.2 K) [S/m] | electrical conductivity ([1]; 313.2 K) [S/m] | electrical conductivity ([1]; 318.2 K) [S/m] | electrical conductivity ([1]; 323.2 K) [S/m] | electrical conductivity ([1]; 328.2 K) [S/m] | electrical conductivity ([1]; 333.2 K) [S/m] | electrical conductivity ([1]; 338.2 K) [S/m] | electrical conductivity ([1]; 343.2 K) [S/m] | electrical conductivity ([1]; 348.2 K) [S/m] | electrical conductivity ([1]; 353.2 K) [S/m] | molar heat capacity at constant pressure ([2]; 303.2 K) [J/K/mol] | molar heat capacity at constant pressure ([2]; 308.2 K) [J/K/mol] | molar heat capacity at constant pressure ([2]; 313.2 K) [J/K/mol] | molar heat capacity at constant pressure ([2]; 318.2 K) [J/K/mol] | molar heat capacity at constant pressure ([2]; 323.2 K) [J/K/mol] | molar heat capacity at constant pressure ([2]; 328.2 K) [J/K/mol] | molar heat capacity at constant pressure ([2]; 333.2 K) [J/K/mol] | molar heat capacity at constant pressure ([2]; 338.2 K) [J/K/mol] | molar heat capacity at constant pressure ([2]; 343.2 K) [J/K/mol] | further results |
| --- | --- | --- | --- | --- | --- | --- | --- | --- | --- | --- | --- | --- | --- | --- | --- | --- | --- | --- | --- | --- | --- |
| CCCCn1cc[n+](C)c1.F[P-](F)(F)(F)(F)F [1-butyl-3-methylimidazolium hexafluorophosphate] | 0.114 ± 0.002 | 0.149 ± 0.003 | 0.193 ± 0.006 | 0.245 ± 0.018 | 0.308 ± 0.006 | 0.383 ± 0.008 | 0.468 ± 0.018 | 0.556 ± 0.022 | 0.664 ± 0.018 | 0.917 ± 0.026 | 1.21 ± 0.024 | 412.06 ± 8.5 | 417.75 ± 11 | 420.59 ± 11 | 423.43 ± 11 | 423.43 ± 11 | 426.27 ± 11 | 429.12 ± 11 | 431.96 ± 11 | 434.8 ± 11 | molar heat capacity at constant pressure ([2]; 348.2 K): 440.48 ± 11 J/K/mol; molar heat capacity at constant pressure ([2]; 353.2 K): 443.32 ± 11 J/K/mol; molar heat capacity at constant pressure ([2]; 358.2 K): 443.32 ± 8.5 J/K/mol |
| CCCCn1cc[n+](C)c1.COS(=O)(=O)[O-] [1-butyl-3-methylimidazolium methyl sulfate] | 0.217 ± 0.02 | 0.276 ± 0.018 | 0.348 ± 0.022 | 0.43 ± 0.014 | 0.522 ± 0.016 | 0.626 ± 0.022 | 0.741 ± 0.016 | 0.867 ± 0.02 | 1.01 ± 0.022 | 1.32 ± 0.026 | 1.67 ± 0.033 | 375.47 ± 7.5 | 380.48 ± 7.5 | 382.98 ± 7.5 | 382.98 ± 7.5 | 385.49 ± 7.5 | 387.99 ± 7.5 | 390.49 ± 7.5 | 393 ± 7.5 | 393 ± 7.5 | molar heat capacity at constant pressure ([2]; 348.2 K): 398 ± 7.5 J/K/mol; molar heat capacity at constant pressure ([2]; 353.2 K): 398 ± 7.5 J/K/mol; molar heat capacity at constant pressure ([2]; 358.2 K): 400.51 ± 7.5 J/K/mol |
| CCCCn1cc[n+](C)c1.F[B-](F)(F)F [1-butyl-3-methylimidazolium tetrafluoroborate] | 0.295 ± 0.016 | 0.364 ± 0.018 | 0.446 ± 0.009 | 0.542 ± 0.011 | 0.651 ± 0.013 | 0.783 ± 0.016 | 0.926 ± 0.019 | 1.08 ± 0.022 | 1.25 ± 0.025 | 1.67 ± 0.033 | 2.18 ± 0.044 | 368.42 ± 6.8 | 370.68 ± 6.8 | 372.94 ± 6.8 | 375.2 ± 6.8 | 377.46 ± 6.8 | 379.72 ± 6.8 | 381.98 ± 6.8 | 384.24 ± 6.8 | 386.5 ± 6.8 | molar heat capacity at constant pressure ([2]; 348.2 K): 388.76 ± 6.8 J/K/mol; molar heat capacity at constant pressure ([2]; 353.2 K): 391.02 ± 6.8 J/K/mol; molar heat capacity at constant pressure ([2]; 358.2 K): 393.28 ± 6.8 J/K/mol |
| CCCCn1cc[n+](C)c1.O=S(=O)([O-])C(F)(F)F [1-butyl-3-methylimidazolium trifluoromethanesulfonate] | 0.23 ± 0.018 | 0.286 ± 0.02 | 0.358 ± 0.081 | 0.437 ± 0.02 | 0.521 ± 0.02 | 0.619 ± 0.018 | 0.724 ± 0.018 | 0.841 ± 0.02 | 0.967 ± 0.02 | 1.25 ± 0.025 | 1.57 ± 0.032 | 443.96 ± 8.6 | 443.96 ± 8.6 | 446.85 ± 8.6 | 449.73 ± 8.6 | 452.61 ± 12 | 452.61 ± 12 | 455.5 ± 12 | 458.38 ± 12 | 461.26 ± 12 | molar heat capacity at constant pressure ([2]; 348.2 K): 464.14 ± 12 J/K/mol; molar heat capacity at constant pressure ([2]; 353.2 K): 467.03 ± 12 J/K/mol; molar heat capacity at constant pressure ([2]; 358.2 K): 469.91 ± 12 J/K/mol |
